Patent US20040143865A1, “Transgenic zebrafish models for angiogenesis” (priority 2002, published 2004)
“Also recorded” adds a separate entry of the source.

Assays:
zebrafish blood vessels = details: Chan et al., 2002; cited from earlier work
[1] = patients treated in clinical trials; cited from earlier work
[2] = test system: vascular endothelial cell; details: in vitro; cited from earlier work
mouse xenograft models = mouse xenograft models (Shaheen et al., 1999); cited from earlier work
[3] = test system: TG(VEGFR2:G-RCFP) transgenic zebrafish embryos; experiment: Angiogenesis inhibitor assay in TG(VEGFR2:G-RCFP) transgenic zebrafish embryos with fluorescent blood vessels; details: for Intersegmental vessel formation: treated overnight from 13-somite stage (approximately 15 hpf); for Phenotypic response: cell wrapped over the compound's rows, in full: Dorsal aorta, caudal veins, present. Intersegmental vessels absent. Cranial vessels reduced in number.; for Concentrations of the compounds required to see these effects (complete block of intersegmental vessel formation) / Blood vessels in the head that form by angiogenesis: overnight application; for Blood vessels in the head that form by angiogenesis: 10 μM for SU5416 and 15 μM for SU6668; for Effect on pre-existing blood vessels: six-hour treatment at 24 hpf, well-established primary vasculature not affected; for Migration pattern of VEGFR2 expressing cells toward the midline: treated embryos at the 18 somite stage, versus control
[4] = 10 μM, stage at treatment 6 hpf, time treated 24 h
[5] = 10 μM, stage at treatment 15 hpf, time treated 24 h
[6] = 10 μM, stage at treatment 24 hpf, time treated 6 h

| SMILES | VEGF-induced vascular endothelial cell proliferation [2] | Metastases, microvessel formation and apoptosis (mouse xenograft models) | Percent full effect [3, 4] [%] | Percent full effect [3, 5] [%] | Percent full effect [3, 6] [%] | Phenotypic response [3] | Concentrations of the compounds required to see these effects (complete block of intersegmental vessel formation) [3] [µM] | Blood vessels in the head that form by angiogenesis [3] | Effect on pre-existing blood vessels [3] | Migration pattern of VEGFR2 expressing cells toward the midline [3] | further results |
| --- | --- | --- | --- | --- | --- | --- | --- | --- | --- | --- | --- |
| Clc1ccc(Nc2nnc(Cc3ccncc3)c3ccccc23)cc1 [PTK787/ZK222584] | – | – | – | – | – | – | – | – | – | – | Formation of zebrafish blood vessels (zebrafish blood vessels): affect the formation of zebrafish blood vessels |
| Cc1cc(C)c(/C=C2\C(=O)Nc3ccccc32)[nH]1 [SU5416] | inhibit VEGF-induced vascular endothelial cell proliferation in vitro | inhibit the formation of metastases and microvessel formation and increase apoptosis of both tumor cells and tumor endothelial cells | 100 | 100 | 100 | Dorsal aorta, caudal | 10 | blood vessels in the head that form by angiogenesis were not observed | disrupted pre- existing blood vessels | No difference was observed in the migration pattern of VEGFR2 expressing cells | Plasma level [1]: 5 µM; Percent full effect ([3]; 5 μM, stage at treatment 6 hpf, time treated 24 h): 100%; Percent full effect ([3]; 5 μM, stage at treatment 15 hpf, time treated 24 h): 77%; Percent full effect ([3]; 5 μM, stage at treatment 24 hpf, time treated 6 h): 60%; Disruption of pre-existing intersegmental vessels ([3]; 10 μM for six hours beginning at 24 hpf, embryo at 30 hpf): A single intersegmental vessel (indicated by arrow) remains; Intersegmental vessel formation ([3]; 10 μM, embryo at 30 hpf): No intersegmental vessels are observed; also recorded: completely blocked intersegmental vessel formation; Percent full effect ([3]; 10 μM, stage at treatment 15 hpf, time treated 6 h): 100%; Recovery time of treated embryos ([3]; comparison SU5416 versus SU6668): required a longer recovery time than those treated with SU6668; Distribution in treated embryos ([3]; difficult to remove even after many hours of soaking in fresh water): highly concentrated in the yolk of treated embryos |
| Cc1[nH]c(/C=C2\C(=O)Nc3ccccc32)c(C)c1CCC(=O)O [SU6668] | inhibit VEGF-induced vascular endothelial cell proliferation in vitro | inhibit the formation of metastases and microvessel formation and increase apoptosis of both tumor cells and tumor endothelial cells | 100 | 100 | 87 | Dorsal aorta, caudal | 15 | blood vessels in the head that form by angiogenesis were not observed | disrupted pre- existing blood vessels | No difference was observed in the migration pattern of VEGFR2 expressing cells | Intersegmental vessel formation ([3]; 15 μM, embryo at 30 hpf): No intersegmental vessels are observed; also recorded: completely blocked intersegmental vessel formation; Percent full effect ([3]; 15 μM, stage at treatment 6 hpf, time treated 24 h): 100%; Percent full effect ([3]; 15 μM, stage at treatment 15 hpf, time treated 6 h): 100%; Percent full effect ([3]; 15 μM, stage at treatment 15 hpf, time treated 24 h): 100%; Percent full effect ([3]; 15 μM, stage at treatment 24 hpf, time treated 6 h): 100%; Intersegmental vessels after recovery ([3]; larva at 5 dpf, treated overnight with 15 μM at 2 dpf, recovered 3 days in fresh water, some vessels migrating abnormally): Intersegmental vessels are reforming |
